Marks after values point to notes of the source that are not given here.
How the values were obtained:
Assay type in all cases: cell-based
[1] = tested on: GEF; test: GEF-activity in membrane fractions of ECV304 cells (RhoGEF Exchange Assay)
Procedure: (§1) To measure the GEF-inhibitory effect, the following cell lines were used: Caco-2 (epithelial cells from adeno-carcinoma), ECV304 (epithelial cells from bladder carcinoma) and HpMec (endothelial cells, immortalized pulmonary micro-vascular cells). All cells were grown at standard conditions (37° C., 5% CO2 and 95% relative humidity (rH)). Culture Medium used for Caco-2: DMEM+1 mM sodium pyruvate+20% FCS+1% Penicillin Streptomycin; for ECV 304: RPMI 1640+10% FCS+1% Penicillin Streptomycin; and for HpMec: IMDM+25 mM Hepes+10% Human Serum+1% Penicillin Streptomycin+1% L-Glutamine+ECGS/Heparin 2 ml. 4 h before the experiment, cells were starved by serum withdrawal. To induce GEF-activity, cells were stimulated with thrombin, lipopolysaccharide (LPS) or PMA for the indicated time in presence or absence of 50 μg/ml XIB1-a or XIB1-b. After stimulation, membrane fractions were prepared by using the commercial available “Compartemental Protein Extraction Kit” from Biochain institutes. Membrane fractions were prepared according to the manufacturer instructions. GEF-activity in membrane lysates was determined by using “RhoGEF Exchange Assay Biochem Kit” from Cytoskeleton Inc. according to manufacturer instructions. GEF-activity was measured as fluorescence at using the Fluoroskan Ascent FL 2.6 from Thermo Electron Corporation. The excitation Filter wavelength was set at 355 nm and the emission filter wavelength at 460 nm.

[2] = tested on: Phosphorylated Myosin Light Chain (MLC) and actin stress fibers; test: MLC phosphorylation and actin stress fiber formation in HpMec cells (microscopy score)
Procedure: To measure MLC phosphorylation and actin stress fiber formation, the following cell lines were used: Caco-2, ECV304 and HpMec. All cells were grown at standard conditions (37° C., 5% CO2 and 95% rH). Culture Medium used: for Caco-2: DMEM+1 mM sodium pyruvate+20% FCS+1% Penicillin Streptomycin; for ECV 304: RPMI 1640+10% FCS+1% Penicillin Streptomycin; and for HpMec: IMDM+25 mM Hepes+10% Human Serum+1% Penicillin Streptomycin+1% L-Glutamine+ECGS/Heparin 2 ml. 4 h before the experiment, cells were starved by serum withdrawal. To induce GEF-activity, cells were stimulated with thrombin, LPS or PMA for the indicated time in presence or absence of 50 μg/ml XIB1-a or XIB1-b. After stimulation, cells were fixed using 4% PFA. Phospho MLC was detected by using the “rabbit anti phosphor-myosin light chain antibody” from Chemicon in a concentration of 3 μl/ml in PBS (Gibco) supplemented with 0.1% Triton X-100. As detection antibody, the Alexa 448 tagged “anti Rabbit IgG Antibody” from Invitrogen was used in a concentration of 0.5 μl/ml in PBS (Gibco) supplemented with 0.1% Triton X-100. Aktin was detected using TRITC-labeled Phalloidin in a concentration of 0.5 μl/ml in PBS (Gibco) supplemented with 0.1% Triton. Stained cells were analyzed by using a Zeiss Laser Scan microscope. Evaluation of the cyto-skeletal activation was performed by 2 independent observers that were blinded to the conditions. Evaluation criteria were set as follows:
Actin: parallel actin bundles absent=0; distinct bundle formation=1; prominent parallel bundles=2; Phospho-MLC: present at cell poles=0; slight co-localization with actin bundles=1; prominent co-localization with actin bundles=2

[3] = tested on: GEF; test: GEF-activity in membrane fractions of HpMec cells (RhoGEF Exchange Assay); settings: HpMec
Procedure: as §1

[4] = tested on: GTP-bound RhoA; test: GTP-associated active RhoA in ECV304 membrane fraction (western blot)
Procedure: (§2) To measure the GTP-associated active RhoA, the following cell lines were used: Caco-2, ECV304 and HpMec. All cells were grown at standard conditions (37° C., 5% CO2 and 95% rH). 4 h before the experiment, cells were starved by serum withdrawal. To induce GEF-activity, cells were stimulated with thrombin, LPS or PMA for the indicated time in presence or absence of 50 μg/ml XIB1-a or XIB1-b. After stimulation, membrane fractions were prepared by using the commercial available “Compartemental Protein Extraction Kit” from Biochain Institutes. Membrane fractions were prepared according to the manufacturer instructions. The membrane fraction was separated on 15% polyacrylamide gel according to standard procedures of gel electrophoresis. The gels were afterwards blotted on a nitrocellulose membrane according to standard procedures of western blotting. GTP-bound RhoA was detected using RhoA-GTP monoclonal antibody from NewEast Inc. in a dilution of 1:5000. Protein bands were analyzed with the Dolphin-1D Gel analysis system (Wealtec).

[5] = tested on: GTP-bound RhoA; test: GTP-associated active RhoA in HpMec membrane fraction (western blot); settings: HpMec
Procedure: as §2

[6] = ECV 304, LPS 100 μg/ml, 1 min, with or without peptide 50 μg/ml
[7] = ECV 304, LPS 100 μg/ml, 5 min, with or without peptide 50 μg/ml
[8] = ECV 304, Thrombin 1 U/ml, 1 min, with or without peptide 50 μg/ml
[9] = ECV 304, Thrombin 1 U/ml, 5 min, with or without peptide 50 μg/ml
[10] = ECV 304, no stimulus, 1 min, peptide 50 μg/ml
[11] = ECV 304, no stimulus, 5 min, peptide 50 μg/ml
[12] = Thrombin 1 U/ml, 1 min, with or without peptide 50 μg/ml
[13] = Thrombin 1 U/ml, 5 min, with or without peptide 50 μg/ml
[14] = no stimulus, 1 min, peptide 50 μg/ml
[15] = no stimulus, 5 min, peptide 50 μg/ml

Sequence	GEF-activity, relative values compared to unstimulated control (Mean) [1, 6]	GEF-activity, relative values compared to unstimulated control (Mean) [1, 7]	GEF-activity, relative values compared to unstimulated control (Mean) [1, 8]	GEF-activity, relative values compared to unstimulated control (Mean) [1, 9]	GEF-activity, relative values compared to unstimulated control (Mean) [1, 10]	GEF-activity, relative values compared to unstimulated control (Mean) [1, 11]	MLC phosphorylation and actin stress fiber formation, evaluation score (Mean) [2, 12]	MLC phosphorylation and actin stress fiber formation, evaluation score (Mean) [2, 13]	MLC phosphorylation and actin stress fiber formation, evaluation score (Mean) [2, 14]	MLC phosphorylation and actin stress fiber formation, evaluation score (Mean) [2, 15]	GEF-activity, relative values compared to unstimulated control (Mean) [3, 12]	GEF-activity, relative values compared to unstimulated control (Mean) [3, 13]	GEF-activity, relative values compared to unstimulated control (Mean) [3, 14]	GEF-activity, relative values compared to unstimulated control (Mean) [3, 15]	GTP-bound RhoA, relative values compared to unstimulated control (Mean) [4, 6]	GTP-bound RhoA, relative values compared to unstimulated control (Mean) [4, 7]	GTP-bound RhoA, relative values compared to unstimulated control (Mean) [4, 8]	GTP-bound RhoA, relative values compared to unstimulated control (Mean) [4, 9]	GTP-bound RhoA, relative values compared to unstimulated control (Mean) [4, 10]	GTP-bound RhoA, relative values compared to unstimulated control (Mean) [4, 11]	other results
GRRPGGASGG (/note=“Description of artificial sequence cingulin-derived peptide XIB1-a”)	1.7*	1.3*	2.5*	1.5*	1	1	1*	0.3*	0	0	1.8*	2.1*	1	1	1.6*	1.7*	2.1*	1.9*	1	1	GTP-bound RhoA, relative values compared to unstimulated control (Mean) [5, 12]: 2.1*; GTP-bound RhoA, relative values compared to unstimulated control (Mean) [5, 13]: 1.3*; GTP-bound RhoA, relative values compared to unstimulated control (Mean) [5, 14]: 1; GTP-bound RhoA, relative values compared to unstimulated control (Mean) [5, 15]: 1
GRRPLGGISGG (/note=“Description of artificial sequence cingulin-derived peptide XIB1-b”)	1.7*	1.3*	2.5*	1.5*	1	1	1*	0.3*	0	0	1.8*	2.1*	1	1	1.6*	1.7*	2.1*	1.9*	1	1	GTP-bound RhoA, relative values compared to unstimulated control (Mean) [5, 12]: 2.1*; GTP-bound RhoA, relative values compared to unstimulated control (Mean) [5, 13]: 1.3*; GTP-bound RhoA, relative values compared to unstimulated control (Mean) [5, 14]: 1; GTP-bound RhoA, relative values compared to unstimulated control (Mean) [5, 15]: 1

From US9012403B2, “Peptides as active agents to stabilize biological barriers” (XiberScience GmbH, priority 2010, dated 2015)
